According to ChEMBL document CHEMBL4308841, “Synthesis, in vitro antiproliferative activity, and kinase inhibitory effects of pyrazole-containing diarylureas and diarylamides” (Eur J Med Chem, 2018):

Legend:
[1] = tested on: NCI/ADR-RES; experiment: Growth inhibition of human NCI/ADR-RES cells assessed as cell growth at 0.1 uM incubated for 48 hrs by sulforhodamine B assay relative to control; format: functional; conditions: read-out: Activity
[2] = tested on: K562; experiment: Growth inhibition of human K562 cells assessed as cell growth at 1 uM incubated for 48 hrs by sulforhodamine B assay relative to control; format: functional; conditions: K562, 48 h, read-out: Activity
[3] = tested on: Malme-3M; experiment: Growth inhibition of human MALME-3M cells assessed as cell growth at 0.1 uM incubated for 48 hrs by sulforhodamine B assay relative to control; format: functional; conditions: read-out: Activity
[4] = tested on: M14; experiment: Growth inhibition of human M14 cells incubated for 48 hrs by sulforhodamine B assay; format: functional, cell-based; conditions: M14, 48 h
[5] = tested on: DU-145; experiment: Growth inhibition of human DU145 cells assessed as cell growth at 0.1 uM incubated for 48 hrs by sulforhodamine B assay relative to control; format: functional; conditions: DU-145, 48 h, read-out: Activity
[6] = tested on: NCI-H226; experiment: Growth inhibition of human NCI-H226 cells assessed as cell growth at 0.01 uM incubated for 48 hrs by sulforhodamine B assay relative to control; format: functional; conditions: NCI-H226, 48 h, read-out: Activity
[7] = tested on: SK-MEL-28; experiment: Growth inhibition of human SK-MEL-28 cells assessed as cell growth at 100 uM incubated for 48 hrs by sulforhodamine B assay relative to control; format: functional; conditions: SK-MEL-28, 48 h, read-out: Activity
[8] = tested on: CAKI-1; experiment: Growth inhibition of human Caki1 cells assessed as cell growth at 1 uM incubated for 48 hrs by sulforhodamine B assay relative to control; format: functional; conditions: CAKI-1, 48 h, read-out: Activity
[9] = tested on: ACHN; experiment: Growth inhibition of human ACHN cells incubated for 48 hrs by sulforhodamine B assay; format: functional, cell-based
[10] = tested on: MCF7; experiment: Growth inhibition of human MCF7 cells assessed as cell growth at 0.1 uM incubated for 48 hrs by sulforhodamine B assay relative to control; format: functional; conditions: MCF7, 48 h, read-out: Activity
[11] = tested on: HOP-62; experiment: Growth inhibition of human HOP62 cells assessed as cell growth at 100 uM incubated for 48 hrs by sulforhodamine B assay relative to control; format: functional; conditions: HOP-62, 48 h, read-out: Activity
[12] = tested on: UACC-62; experiment: Growth inhibition of human UACC62 cells assessed as cell growth at 0.1 uM incubated for 48 hrs by sulforhodamine B assay relative to control; format: functional; conditions: UACC-62, 48 h, read-out: Activity
[13] = tested on: COLO 205; experiment: Growth inhibition of human COLO205 cells assessed as cell growth at 1 uM incubated for 48 hrs by sulforhodamine B assay relative to control; format: functional; conditions: COLO 205, 48 h, read-out: Activity
[14] = tested on: SF-539; experiment: Growth inhibition of human SF539 cells assessed as cell growth at 100 uM incubated for 48 hrs by sulforhodamine B assay relative to control; format: functional; conditions: SF-539, 48 h, read-out: Activity
[15] = tested on: K562; experiment: Growth inhibition of human K562 cells assessed as cell growth at 0.01 uM incubated for 48 hrs by sulforhodamine B assay relative to control; format: functional; conditions: K562, 48 h, read-out: Activity
[16] = tested on: UACC-257; experiment: Growth inhibition of human UACC257 cells assessed as cell growth at 0.1 uM incubated for 48 hrs by sulforhodamine B assay relative to control; format: functional; conditions: UACC-257, 48 h, read-out: Activity
[17] = tested on: HCT-116; experiment: Growth inhibition of human HCT116 cells incubated for 48 hrs by sulforhodamine B assay; format: functional, cell-based; conditions: HCT-116, 48 h
[18] = tested on: CAKI-1; experiment: Growth inhibition of human Caki1 cells assessed as cell growth at 0.1 uM incubated for 48 hrs by sulforhodamine B assay relative to control; format: functional; conditions: CAKI-1, 48 h, read-out: Activity
[19] = tested on: NCI-H522; experiment: Growth inhibition of human NCI-H522 cells assessed as cell growth at 0.01 uM incubated for 48 hrs by sulforhodamine B assay relative to control; format: functional; conditions: NCI-H522, 48 h, read-out: Activity
[20] = tested on: LOX IMVI; experiment: Growth inhibition of human LOXIMVI cells assessed as cell growth at 1 uM incubated for 48 hrs by sulforhodamine B assay relative to control; format: functional; conditions: read-out: Activity
[21] = tested on: LOX IMVI; experiment: Growth inhibition of human LOXIMVI cells incubated for 48 hrs by sulforhodamine B assay; format: functional
[22] = tested on: SK-OV-3; experiment: Growth inhibition of human SKOV3 cells assessed as cell growth at 0.1 uM incubated for 48 hrs by sulforhodamine B assay relative to control; format: functional; conditions: SK-OV-3, 48 h, read-out: Activity
[23] = tested on: MDA-MB-468; experiment: Growth inhibition of human MDA-MB-468 cells assessed as cell growth at 1 uM incubated for 48 hrs by sulforhodamine B assay relative to control; format: functional; conditions: MDA-MB-468, 48 h, read-out: Activity
[24] = tested on: 786-0; experiment: Growth inhibition of human 786-0 cells assessed as cell growth at 1 uM incubated for 48 hrs by sulforhodamine B assay relative to control; format: functional; conditions: 786-0, 48 h, read-out: Activity
[25] = tested on: NCI-H23; experiment: Growth inhibition of human NCI-H23 cells assessed as cell growth at 0.01 uM incubated for 48 hrs by sulforhodamine B assay relative to control; format: functional; conditions: NCI-H23, 48 h, read-out: Activity
[26] = tested on: 786-0; experiment: Growth inhibition of human 786-0 cells assessed as cell growth at 0.1 uM incubated for 48 hrs by sulforhodamine B assay relative to control; format: functional; conditions: 786-0, 48 h, read-out: Activity
[27] = tested on: U-251; experiment: Growth inhibition of human U251 cells incubated for 48 hrs by sulforhodamine B assay; format: functional, cell-based; conditions: U-251, 48 h
[28] = tested on: COLO 205; experiment: Growth inhibition of human COLO205 cells incubated for 48 hrs by sulforhodamine B assay; format: functional, cell-based; conditions: COLO 205, 48 h
[29] = tested on: OVCAR-8; experiment: Growth inhibition of human OVCAR8 cells assessed as cell growth at 0.1 uM incubated for 48 hrs by sulforhodamine B assay relative to control; format: functional; conditions: OVCAR-8, 48 h, read-out: Activity
[30] = tested on: MCF7; experiment: Growth inhibition of human MCF7 cells assessed as cell growth at 0.01 uM incubated for 48 hrs by sulforhodamine B assay relative to control; format: functional; conditions: MCF7, 48 h, read-out: Activity
[31] = read-out: LC50 (the source's name)
[32] = read-out: pLC50 (the source's name) (converted)

Structure (SMILES): O=C(Nc1cccc(-n2cc(-c3ccncc3)c(-c3cc(O)cc(Cl)c3)n2)c1)Nc1ccc(Cl)c(Cl)c1
- growth at 0.1 µM [1]: 105%
- growth at 1 µM [2]: 83%
- growth at 0.1 µM [3]: 84%
- GI50 ([4]; read-out: GI50): 1.44 µM
- CC50 [4, 31]: 7.44 µM
- TGI ([4]; read-out: TGI): 32.8 µM
- GI50 ([4]; read-out: pGI50 (converted)): 1.45 µM
- CC50 [4, 32]: 7.41 µM
- TGI ([4]; read-out: pTGI (converted)): 3.31 µM
- growth at 0.1 µM [5]: 104%
- growth at 0.01 µM [6]: 94%
- growth at 100 µM [7]: -52%
- growth at 1 µM [8]: 54%
- GI50 ([9]; read-out: GI50): 2.21 µM
- CC50 [9, 31]: > 100 µM
- TGI ([9]; read-out: TGI): 67.1 µM
- GI50 ([9]; read-out: pGI50 (converted)): 2.19 µM
- CC50 [9, 32]: > 100 µM
- TGI ([9]; read-out: pTGI (converted)): 8.91 µM
- growth at 0.1 µM [10]: 97%
- growth at 100 µM [11]: -3%
- growth at 0.1 µM [12]: 99%
- growth at 1 µM [13]: 101%
- growth at 100 µM [14]: -52%
- growth at 0.01 µM [15]: 107%
- growth at 0.1 µM [16]: 91%
- IC50 [17]: 1.74 µM
- GI50 ([17]; read-out: GI50): 1.74 µM
- CC50 [17, 31]: 9.59 µM
- TGI ([17]; read-out: TGI): 41 µM
- GI50 ([17]; read-out: pGI50 (converted)): 1.74 µM
- CC50 [17, 32]: 9.77 µM
- TGI ([17]; read-out: pTGI (converted)): 4.07 µM
- growth at 0.1 µM [18]: 98%
- growth at 0.01 µM [19]: 88%
- growth at 1 µM [20]: 83%
- GI50 ([21]; read-out: GI50): 1.56 µM
- TGI ([21]; read-out: TGI): 41 µM
- GI50 ([21]; read-out: pGI50 (converted)): 1.86 µM
- TGI ([21]; read-out: pTGI (converted)): 4.17 µM
- growth at 0.1 µM [22]: 103%
- growth at 1 µM [23]: 59%
- growth at 1 µM [24]: 71%
- growth at 0.01 µM [25]: 96%
- growth at 0.1 µM [26]: 90%
- IC50 [27]: 1.44 µM
- GI50 ([27]; read-out: GI50): 1.44 µM
- CC50 [27, 31]: 5.51 µM
- TGI ([27]; read-out: TGI): 30 µM
- GI50 ([27]; read-out: pGI50 (converted)): 1.45 µM
- CC50 [27, 32]: 6.61 µM
- TGI ([27]; read-out: pTGI (converted)): 3.09 µM
- GI50 ([28]; read-out: GI50): 1.96 µM
- CC50 [28, 31]: 7.29 µM
- TGI ([28]; read-out: TGI): 37.8 µM
- GI50 ([28]; read-out: pGI50 (converted)): 1.95 µM
- CC50 [28, 32]: 7.24 µM
- TGI ([28]; read-out: pTGI (converted)): 3.8 µM
- growth at 0.1 µM [29]: 97%
- growth at 0.01 µM [30]: 93%
